Experimental findings from patent US20220162610A1, “NOVEL RNA TRANSCRIPT” (PTC Therapeutics, Inc., priority 2020, published 2022) are described below.

Series [1] relates to HTT protein. As to the kind of experiment: HTT protein electrochemiluminescence (ECL) assay in HD patient fibroblasts, 96 h. Type of series: cell-based, human. To be noted: fibroblasts derived from HD patients, 96 h. The method, then:
Human fibroblasts derived from a homozygous patient with HD (GM4857) were cultured for 96 hours in the presence of test compounds (in 0.5% DMSO) or controls at 37° C. in a humidified 5% CO2 atmosphere. After 96 hours, cells were lysed and frozen. HTT protein levels were measured in lysates as described below. Compounds that decreased HTT protein levels relative to DMSO control were further tested in a dose response assay.
For analysis in the electrochemiluminescence (ECL) assays, test compounds were serially diluted 3-fold in 100% DMSO (Sigma) to generate a 7-point concentration curve. A solution of test compound (500 nL, 200× in DMSO) was added to each test well with Acoustic Transfer System (EDC Biosystems); final concentration of DMSO was 0.5%. Fibroblasts were seeded in 96-well flat-bottomed plates (Thermo Fisher) at 4×10^3 cells/well in 100 μl of culture medium containing the test compound or DMSO vehicle control and incubated for 96 hours (37° C., 5% CO2, 100% relative humidity). After removal of the supernatant, cells were lysed in 50 μL of 1×LB11 extraction buffer (50 mM Tris (pH 7.4), 300 mM NaCl, 10% [w/v] glycerol, 3 mM EDTA, 1 mM MgCl2, 20 mM glycerophosphate, 25 mM NaF, 1% Triton X-100), containing a Complete™ protease inhibitor cocktail (Roche Diagnostics) with shaking at 4° C. for 30 minutes; the plates were then stored at −20° C.
Meso Scale Discovery® 96-well plates (MSD®) were coated overnight at 4° C. with primary antibodies in phosphate-buffered saline (PBS; 30 μl/well). The plates were washed three times with 0.05% Tween-20 in 1×PBS (PBS-T; 200 μl/well) then blocked (100 μl/well; 5% bovine serum albumin [BSA] in PBS-T) for 5-6 hours at room temperature (RT) with shaking. Plates were then washed three times with PBS-T. Cell lysates were transferred to the antibody coated plates (25 μl/well) and incubated with shaking overnight at 4° C. After removal of the lysates, the plates were washed three times with PBS-T, and 25 μl of detection antibody in 1% BSA, PBS-T was added to each well and incubated with shaking for 1 hour at room temperature. After three washes with PBS-T, 25 μl of Sulfo-Tag secondary antibody (MSD®; 0.25 μg/ml in 1% BSA, PBS-T) was added to each well and incubated with shaking for 1 hour at RT. After washing three times with PBS-T, 150 μl of read buffer T with surfactant (MSD®) was added to each empty well and the plate was imaged on the SI 6000 imager (MSD®) according to manufacturers' instructions for 96-well plates. Primary capture antibodies included: anti-polyglutamine-expanded HTT mouse monoclonal antibody (mAb) clone MW1 (1 μg/mL; Developmental Studies Hybridoma Bank); anti-HTT MAB2166 mAb (1 μg/mL; Millipore); anti-human KRAS rabbit polyclonal antibody (1 μg/mL; Thermo Fisher Scientific). Detection antibodies included: Huntingtin (D7F7) XP® Rabbit mAb (0.25 μg/ml; Cell Signalling Technology®); anti-hKRAS mouse mAb (0.25 μg/ml; LSBIO).

Series [2] can be described thus: Unbound brain partition coefficient (Kp,uu) from mouse PK studies. Type of series: in vivo. To be noted: FVB (WT littermates of the BACHD colony), brain and plasma (unbound), oral, 10 mg/kg, average over animals of multiple mouse PK studies. Here is the method: Oral pharmacokinetics (PK) of compounds was evaluated in WT littermates from the BACHD colony (FVB background). Mice were treated with test compounds (10 mg/kg) by oral gavage in 0.5% hydroxypropylmethyl cellulose (HPMC) with 0.1% Tween 80. Blood was collected by terminal cardiac puncture at specified time points (3 mice per time point) and centrifuged to generate plasma. Brain tissue was collected at the time of blood collection and homogenized in water. Protein was precipitated from plasma and brain homogenates with acetonitrile, methanol mixture (5:1, v:v) containing an internal standard that is a close analog of the test compounds. The mixture was filtered through an EMD Millipore MultiScreen™ Solvinert Filter Plate (MSRLN04, Millipore, Burlington, Mass.). Calibration standards were prepared in the same matrix and processed with the testing samples. Filtrates were analysed using Acquity ultra performance liquid chromatography (UPLC) system (Waters Corporation) tandem with Xevo TQ-s Spectrometer (Waters Corporation). Samples were injected on to a Waters UPLC Acquity BEH C18 Column (2.1*50 mm, 1.7 μm) maintained at 50° C. The injection volume was 3 μL and the mobile phase flow rate was 0.45 mL/min. The mobile phase consisted of 2 solvents: A) 0.1% formic acid in water and B) 0.1% formic acid in acetonitrile. The initial mobile phase started with 5% solvent B for 0.4 min, which was changed to […] over 0.8 min with linear gradients and then maintained at 95% solvent B for another 0.4 min. The drug concentrations were acquired and processed with MassLynx 4.1 software. PK parameters were estimated using the non-compartment method within Phoenix® WinNonlin® Build 8.1 (Certara USA, Inc., Princeton, N.J.).
The unbound brain partition coefficient (Kp,uu) is defined as the ratio between unbound brain free drug concentration and unbound plasma concentration. It was calculated using the following equation:
Kp,uu=Cbrain×fu,b/(Cplasma*fu,p)
Cbrain and Cplasma represent the compound concentrations in brain and plasma, respectively. fu,b and fu,p are the unbound fraction of each testing article in brain and plasma, respectively. Both fu,b and fu,p were determined in vitro using Pierce Rapid Equilibrium Dialysis (RED) device at Absorption System LLC (Exton, Pa.). Kp,uu was calculated individually for each animal from multiple mouse PK studies and the average values are reported here.

In series [3] the target is T1, MDR1 (Homo sapiens, UniProt P08183).
T1 construct: host or cells: MDCK (Madin-Darby Canine Kidney) cells expressing MDR1
T1 sequence (P08183 whole entry): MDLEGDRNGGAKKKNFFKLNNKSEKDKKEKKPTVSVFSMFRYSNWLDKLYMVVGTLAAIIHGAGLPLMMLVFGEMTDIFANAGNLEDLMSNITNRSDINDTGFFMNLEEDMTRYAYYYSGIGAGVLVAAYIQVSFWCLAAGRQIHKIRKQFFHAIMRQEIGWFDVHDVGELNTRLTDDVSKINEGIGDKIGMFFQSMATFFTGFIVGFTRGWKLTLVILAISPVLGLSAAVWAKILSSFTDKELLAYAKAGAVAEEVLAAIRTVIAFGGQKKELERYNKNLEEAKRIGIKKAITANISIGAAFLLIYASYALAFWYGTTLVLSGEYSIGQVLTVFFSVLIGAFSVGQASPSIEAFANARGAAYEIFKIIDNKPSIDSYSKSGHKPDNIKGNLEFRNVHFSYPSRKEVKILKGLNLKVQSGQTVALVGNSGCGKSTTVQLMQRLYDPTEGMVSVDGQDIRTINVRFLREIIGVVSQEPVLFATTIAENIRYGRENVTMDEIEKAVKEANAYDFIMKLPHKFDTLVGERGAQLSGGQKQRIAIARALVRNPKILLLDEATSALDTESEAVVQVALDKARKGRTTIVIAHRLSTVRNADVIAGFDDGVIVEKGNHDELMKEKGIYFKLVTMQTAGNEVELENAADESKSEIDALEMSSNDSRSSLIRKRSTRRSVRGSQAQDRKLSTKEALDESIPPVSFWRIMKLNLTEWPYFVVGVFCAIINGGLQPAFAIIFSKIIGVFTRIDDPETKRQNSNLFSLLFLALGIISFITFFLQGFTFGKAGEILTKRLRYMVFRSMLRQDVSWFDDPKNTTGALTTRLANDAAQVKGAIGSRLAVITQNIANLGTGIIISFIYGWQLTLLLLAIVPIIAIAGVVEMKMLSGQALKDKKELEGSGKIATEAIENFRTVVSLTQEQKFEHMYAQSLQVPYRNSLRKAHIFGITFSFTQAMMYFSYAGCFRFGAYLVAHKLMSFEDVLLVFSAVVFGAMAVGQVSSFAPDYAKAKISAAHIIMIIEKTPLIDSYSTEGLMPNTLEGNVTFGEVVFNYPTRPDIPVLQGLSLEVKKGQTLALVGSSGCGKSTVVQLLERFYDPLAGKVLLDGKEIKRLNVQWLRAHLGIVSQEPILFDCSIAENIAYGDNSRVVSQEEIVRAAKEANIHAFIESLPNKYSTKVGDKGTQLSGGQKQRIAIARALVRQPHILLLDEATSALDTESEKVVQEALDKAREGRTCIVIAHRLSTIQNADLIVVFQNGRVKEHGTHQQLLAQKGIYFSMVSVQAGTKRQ
The experiment in a line: MDCK-MDR1 efflux assay. It is filed as in vitro ADME. To be noted: 10 μM, MDCK-MDR1 and MDCK-WT monolayers, 1 hour. Here is the method: The MDR1 efflux assay was conducted at Absorption System LLC (Exton, Pa.). Briefly, MDCK-MDR1 and MDCK-WT cell monolayers were grown to confluence on collagen-coated, microporous membranes in 12-well assay plates (Thermofisher). Compound solutions (10 μM) in permeability assay buffer (Hanks' balanced salt solution (HBSS), 10 mM HEPES, 15 mM glucose; pH of 7.4) were placed in the donor chamber. The receiver chamber was filled with assay buffer plus 1% BSA. Cell monolayers were dosed on the apical side (A-to-B) or basolateral side (B-to-A) and incubated at 37° C. (5% CO2, 100% relative humidity). Sampling from the donor chambers was performed at 0 and 1 hour; and from the receiver chambers at 1 hour. Each determination was performed in duplicate. The flux of lucifer yellow was also measured post-experimentally for each monolayer to ensure no damage was inflicted to the cell monolayers during the flux period. All samples were assayed by LC-MS/MS using electrospray ionisation. The apparent permeability (Papp) and percent recovery was determined using the following equation: […]
dCr/dt represents the slope of the cumulative receiver concentration versus time in μM/s; Vr is the volume of the receiver compartment (cm3); Vd is the volume of the donor compartment in (cm3); A is the area of the insert (1.13 cm2 for 12-well); C0 is the average measured concentration of the donor chamber at time zero in μM; Net Efflux ratio (ER) is defined as […].

Series [4] relates to HTT pre-mRNA. As to the kind of experiment: Ampliseq/RNAseq analysis of intron 49 pseudoexon inclusion and HTT expression in different cell types. It is filed as cell-based, human.

Turning to `CC(C)c1cc(-c2n[nH]cc2-c2ccc3c(c2)OCO3)c(O)cc1O` [HTT-A], the HTT protein level result in series [1] is on record as “lower HTT protein levels”.

Regarding `Cn1c(/C=C/c2ccc(Cl)cc2)c([N+](=O)[O-])c(=O)n(C)c1=O` [HTT-B], the HTT protein level entry in series [1] is on record as “lower HTT protein levels”.

Turning to `CC1(C)CC(n2nnc3cc(-c4ccc(-n5nccn5)cc4O)nnc32)CC(C)(C)N1` [HTT-C3], the Kp uu in series [2] was found to be 0.848. Also, in series [3], the “NET MDR1 ER” value stood at 2.0. For the same compound, the “HTT gene expression quantified using RNAseq (FPKM)” value in series [4] (100 nM, SHSY5Y cells (HTT-C2), TK6 cells (HTT-C3)) is reported as “reduced HTT gene expression”. For the same compound, the “inclusion of intron 49 pseudoexon” value in series [4] (HD fibroblasts, SH-SY5Y, TK6, MRC-5 cells) is “induced the inclusion of an Intron 49 pseudoexon”.
